Laboratory results published in patent US20210112813A1, “HERBICIDAL COMPOSITION AND USE THEREOF” (NANTONG JIANGSHAN AGROCHEMICAL & CHEMICALS CO., LTD., priority 2019, published 2021).

Key:
Format in all cases: in vivo
Bristlegrass [1] = experiment: Greenhouse pot test (treatment timing not given, Tables 6 and 7), visual control effect, Gowing method
Experimental: (§1) In the present application, indoor combined action of the compound of herbicide active component A and B on weeds was measured to determine the combined effect of the composition on weeds, wherein the structure of the active component A was as follows:
(§2) The weed cultivation method was as follows: quantitative weed seeds abutilon and bristlegrass were respectively sown in a paper cup filled with nutrient soil with a diameter of 7 cm, and then cultivated in the greenhouse after covering the soil, suppressing and watering. The post-emergence stem and leaf treatment was performed when the grass weeds grew to 5-7 leaf stage, broad-leaved weeds grew to 6-8 leaf stage; the pre-emergence soil treatment was performed the second day after sowing, and the early post-emergence treatment was performed after sowing and before emergence; the experiment was repeated 3 times. After the treatment and drug solution naturally dried, the weeds were placed in the greenhouse to be managed according to conventional methods. According to the suppression or death of the weeds, a visual control effect investigation was conducted 30 days after the treatment. The application adopted the Gowing method to evaluate the combined effect of the proposed composition.
(§3) X—Weed control effect when the amount of herbicide component A is P;
(§4) Y—Weed control effect when the amount of herbicide component B is Q;
(§5) E0—Theoretical control effect when the amount of herbicide component A is […];
(§6) E—The measured control effect after the herbicide component A and the herbicide component B are mixed according to the above ratio.
(§7) When E−E0>10%, it is synergism; when E−E0<−10%, it is antagonism; when E−E0 value is between ±10%, it is addition.

Abutilon [2] = experiment: Greenhouse pot test, pre-emergence soil treatment, visual control effect 30 days after treatment, Gowing method
Experimental: as §1, §2, §3, §4, §5, §6, §7

Bristlegrass [3] = experiment: as above
Experimental: as §1, §2, §3, §4, §5, §6, §7

Abutilon [4] = experiment: Greenhouse pot test (treatment timing not given, Table 6), visual control effect, Gowing method
Experimental: as §1, §2, §3, §4, §5, §6, §7

[5] = test system: Horseweed herb (collected from Shenyang, Liaoning); experiment: Example 13 combined effect on weeds, Gowing method
Experimental: (§8) The weed cultivation and test material cultivation method was as follows: quantitative weed seeds abutilon and bristlegrass were respectively sown in a paper cup filled with nutrient soil with a diameter of 7 cm, and then cultivated in the greenhouse after covering the soil, suppressing and watering. The stem and leaf spray treatment was performed when the grass weeds grew to 5-7 leaf stage, and broad-leaved weeds grew to 6-8 leaf stage; the tests were repeated for 3 times. the treatment and drug solution naturally dried, the weeds were placed in the greenhouse to be managed according to conventional methods. According to the suppression or death of the weeds, a visual control effect investigation was conducted 30 days after the treatment.
(§9) The application adopted the Gowing method to evaluate the combined effect of the proposed composition.
as §3, §4, §5, §6, §7
(§10) The test targets were horseweed herb collected from Shenyang, Liaoning and goosegrass collected from Zhengzhou, Henan.

[6] = test system: goosegrass (collected from Zhengzhou, Henan); experiment: Example 13 combined effect on weeds, Gowing method
Experimental: as §8, §9, §3, §4, §5, §6, §7, §10

Abutilon [7] = experiment: Greenhouse pot test, post-emergence stem and leaf treatment, visual control effect 30 days after treatment, Gowing method
Experimental: as §1, §2, §3, §4, §5, §6, §7

Bristlegrass [8] = experiment: as above
Experimental: as §1, §2, §3, §4, §5, §6, §7

Abutilon [9] = experiment: Example 12 indoor pot experiment, stem and leaf spray, visual control effect 30 days after treatment, Gowing method
Experimental: (§11) The combined effect of the composition on the weeds was clarified by the indoor pot experiment.
as §8, §9, §3, §4, §5, §6, §7

Bristlegrass [10] = experiment: as above
Experimental: as §11, §8, §9, §3, §4, §5, §6, §7

Amaranthusretroflexus = experiment: Greenhouse pot test (treatment timing not given, Table 7), visual control effect, Gowing method
Echinochloacrusgalli = experiment: Example 15 indoor pot planting, death rate / herbicidal speed, weeds in 6-leaf stage
Experimental: (§12) The death rate of weeds after application of the herbicidal composition of the present application was measured and compared with the herbicidal rate when a single component was used. The test used the method of indoor pot planting. At the time of treatment, abutilon and barnyardgrass were in 6-leaf stage.

Abutilon [11] = experiment: as above
Experimental: as §12

Eclipta alba = experiment: Greenhouse pot test, pre-emergence soil treatment, visual control effect 30 days after treatment, Gowing method
Lambsquarters = experiment: as above
[12] = Example 13 Table 2, dose 3.75 ga.i./hm^2
[13] = Example 13 Table 2, dose 7.5 ga.i./hm^2
[14] = Example 13 Table 2, dose 15 ga.i./hm^2
[15] = Example 13 Table 2, dose 30 ga.i./hm^2
[16] = Example 12 Table 1, dose 3.75 ga.i./hm^2
[17] = Example 12 Table 1, dose 7.5 ga.i./hm^2
[18] = Example 12 Table 1, dose 15 ga.i./hm^2
[19] = Example 12 Table 1, dose 30 ga.i./hm^2
[20] = Table 11, 7 days after treatment, dose 15 ga.i./hm^2
[21] = Table 11, 7 days after treatment, dose 30 ga.i./hm^2
[22] = Table 11, 7 days after treatment, dose 60 ga.i./hm^2
[23] = Table 11, 7 days after treatment, dose 120 ga.i./hm^2
[24] = Table 11, 15 days after treatment, dose 15 ga.i./hm^2
[25] = Table 11, 15 days after treatment, dose 30 ga.i./hm^2
[26] = Table 11, 15 days after treatment, dose 60 ga.i./hm^2
[27] = Table 11, 15 days after treatment, dose 120 ga.i./hm^2
[28] = Table 11, 30 days after treatment, dose 15 ga.i./hm^2
[29] = Table 11, 30 days after treatment, dose 30 ga.i./hm^2
[30] = Table 11, 30 days after treatment, dose 60 ga.i./hm^2
[31] = Table 11, 30 days after treatment, dose 120 ga.i./hm^2

Structure (SMILES): CCOC(=O)C1(C)CC(c2cc(-n3c(=O)cc(C(F)(F)F)n(C)c3=O)c(F)cc2Cl)=NO1 (stereo not drawn) [active component A, 3-(2-chloro-4-fluoro-5-(3-methyl-2,6-dioxo-4-trifluoromethyl-3,6-dihydropyrimidine-1(2H)-yl)phenyl)-5-methyl-4,5-dihydroisoxazole-5-carboxylic acid ethyl ester]
- Measured value E (Bristlegrass [1]; Table 6, dose 15 ga.i./hm^2): 10%
- Measured value E (Bristlegrass [1]; Table 6, dose 60 ga.i./hm^2): 35%
- Measured value E (Bristlegrass [1]; Table 7, dose 15 ga.i./hm^2): 20%
- Measured value E (Bristlegrass [1]; Table 7, dose 30 ga.i./hm^2): 50%
- Measured value E (Abutilon [2]; Table 4, dose 15 ga.i./hm^2): 5%
- Measured value E (Abutilon [2]; Table 4, dose 30 ga.i./hm^2): 20%
- Measured value E (Bristlegrass [3]; Table 1, dose 7.5 ga.i./hm^2): 0%
- Measured value E (Bristlegrass [3]; Table 1, dose 15 ga.i./hm^2): 15%
- Measured value E (Bristlegrass [3]; Table 2, dose 15 ga.i./hm^2): 10%
- Measured value E (Bristlegrass [3]; Table 2, dose 22.5 ga.i./hm^2): 25%
- Measured value E (Bristlegrass [3]; Table 3, dose 7.5 ga.i./hm^2): 0%
- Measured value E (Bristlegrass [3]; Table 3, dose 15 ga.i./hm^2): 10%
- Measured value E (Bristlegrass [3]; Table 4, dose 15 ga.i./hm^2): 10%
- Measured value E (Bristlegrass [3]; Table 4, dose 30 ga.i./hm^2): 15%
- Measured value E (Abutilon [4]; dose 15 ga.i./hm^2): 35%
- Measured value E (Abutilon [4]; dose 60 ga.i./hm^2): 45%
- Measured value E [5, 12]: 10%
- Measured value E [5, 13]: 30%
- Measured value E [5, 14]: 35%
- Measured value E [5, 15]: 55%
- Measured value E [6, 12]: 5%
- Measured value E [6, 13]: 15%
- Measured value E [6, 14]: 30%
- Measured value E [6, 15]: 45%
- Measured value E (Abutilon [7]; Table 5, dose 7.5 ga.i./hm^2): 10%
- Measured value E (Abutilon [7]; Table 5, dose 15 ga.i./hm^2): 15%
- Measured value E (Bristlegrass [8]; Table 5, dose 7.5 ga.i./hm^2): 5%
- Measured value E (Bristlegrass [8]; Table 5, dose 15 ga.i./hm^2): 10%
- Measured value E (Abutilon [9]; [16]): 10%
- Measured value E (Abutilon [9]; [17]): 25%
- Measured value E (Abutilon [9]; [18]): 40%
- Measured value E (Abutilon [9]; [19]): 55%
- Measured value E (Bristlegrass [10]; [16]): 5%
- Measured value E (Bristlegrass [10]; [17]): 10%
- Measured value E (Bristlegrass [10]; [18]): 15%
- Measured value E (Bristlegrass [10]; [19]): 25%
- Measured value E (Amaranthusretroflexus; dose 15 ga.i./hm^2): 20%
- Measured value E (Amaranthusretroflexus; dose 30 ga.i./hm^2): 65%
- Control effect (visual observation %) (Echinochloacrusgalli; [20]): 16.6%
- Control effect (visual observation %) (Echinochloacrusgalli; [21]): 18.0%
- Control effect (visual observation %) (Echinochloacrusgalli; [22]): 31.0%
- Control effect (visual observation %) (Echinochloacrusgalli; [23]): 34.3%
- Control effect (visual observation %) (Echinochloacrusgalli; [24]): 18.4%
- Control effect (visual observation %) (Echinochloacrusgalli; [25]): 19.8%
- Control effect (visual observation %) (Echinochloacrusgalli; [26]): 36.7%
- Control effect (visual observation %) (Echinochloacrusgalli; [27]): 40.7%
- Control effect (visual observation %) (Echinochloacrusgalli; [28]): 20.9%
- Control effect (visual observation %) (Echinochloacrusgalli; [29]): 43.2%
- Control effect (visual observation %) (Echinochloacrusgalli; [30]): 32.9%
- Control effect (visual observation %) (Echinochloacrusgalli; [31]): 42.5%
- Control effect (visual observation %) (Abutilon [11]; [20]): 46.0%
- Control effect (visual observation %) (Abutilon [11]; [21]): 68.1%
- Control effect (visual observation %) (Abutilon [11]; [22]): 82.4%
- Control effect (visual observation %) (Abutilon [11]; [23]): 94.3%
- Control effect (visual observation %) (Abutilon [11]; [24]): 54.0%
- Control effect (visual observation %) (Abutilon [11]; [25]): 62.4%
- Control effect (visual observation %) (Abutilon [11]; [26]): 93.8%
- Control effect (visual observation %) (Abutilon [11]; [27]): 100%
- Control effect (visual observation %) (Abutilon [11]; [28]): 38.6%
- Control effect (visual observation %) (Abutilon [11]; [29]): 57.3%
- Control effect (visual observation %) (Abutilon [11]; [30]): 100%
- Control effect (visual observation %) (Abutilon [11]; [31]): 100%
- Measured value E (Eclipta alba; Table 3, dose 7.5 ga.i./hm^2): 0%
- Measured value E (Eclipta alba; Table 3, dose 15 ga.i./hm^2): 10%
- Measured value E (Lambsquarters; Table 1, dose 7.5 ga.i./hm^2): 5%
- Measured value E (Lambsquarters; Table 1, dose 15 ga.i./hm^2): 20%
- Measured value E (Lambsquarters; Table 2, dose 15 ga.i./hm^2): 15%
- Measured value E (Lambsquarters; Table 2, dose 22.5 ga.i./hm^2): 25%

Structure (SMILES): CCOCN(C(=O)CCl)c1c(C)cccc1CC [Acetochlor]
- Measured value E (Bristlegrass [3]; Table 3, dose 75 ga.i./hm^2): 50%
- Measured value E (Bristlegrass [3]; Table 3, dose 150 ga.i./hm^2): 75%
- Measured value E (Eclipta alba; Table 3, dose 75 ga.i./hm^2): 10%
- Measured value E (Eclipta alba; Table 3, dose 150 ga.i./hm^2): 35%
